The values that follow come from patent publication US9796768B2, “Peptide inhibitors of sodium channels” (The University of North Carolina at Chapel Hill, priority 2014, dated 2017).

Entries after “also recorded” stand apart in the source; their conditions may differ. Read-outs that look alike come from different tables or passages of the source. Non-standard residues stand in square brackets, D forms with d. Residues, ends and D or L forms follow the SMILES beside them. No end group written: not given here. Nle = CCCC[C@H](N)C(=O)O

The target of data set [1] is T1, ENaC (Homo sapiens, UniProt P51168).
T1 construct: endogenous in cells; host or cells: primary human bronchial epithelial cultures (HBECs) at air-liquid interface
T1 sequence (P37088 whole entry partner): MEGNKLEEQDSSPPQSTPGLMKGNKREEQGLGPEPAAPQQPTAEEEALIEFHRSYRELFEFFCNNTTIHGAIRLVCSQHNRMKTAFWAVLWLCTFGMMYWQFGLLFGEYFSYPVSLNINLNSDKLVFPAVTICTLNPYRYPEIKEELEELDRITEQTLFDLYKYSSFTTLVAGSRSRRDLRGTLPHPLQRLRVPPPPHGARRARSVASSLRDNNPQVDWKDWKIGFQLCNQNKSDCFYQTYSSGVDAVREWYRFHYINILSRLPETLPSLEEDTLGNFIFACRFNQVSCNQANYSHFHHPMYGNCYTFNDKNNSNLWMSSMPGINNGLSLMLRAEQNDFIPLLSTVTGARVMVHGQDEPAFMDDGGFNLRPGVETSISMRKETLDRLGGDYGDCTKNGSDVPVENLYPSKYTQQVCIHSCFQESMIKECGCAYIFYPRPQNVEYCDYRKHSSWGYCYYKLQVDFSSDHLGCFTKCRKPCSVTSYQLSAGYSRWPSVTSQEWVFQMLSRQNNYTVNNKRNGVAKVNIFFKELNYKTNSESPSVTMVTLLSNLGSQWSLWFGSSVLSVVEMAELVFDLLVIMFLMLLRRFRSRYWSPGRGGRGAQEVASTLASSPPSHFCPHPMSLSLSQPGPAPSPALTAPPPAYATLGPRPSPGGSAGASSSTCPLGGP
T1 sequence (P51168 whole entry): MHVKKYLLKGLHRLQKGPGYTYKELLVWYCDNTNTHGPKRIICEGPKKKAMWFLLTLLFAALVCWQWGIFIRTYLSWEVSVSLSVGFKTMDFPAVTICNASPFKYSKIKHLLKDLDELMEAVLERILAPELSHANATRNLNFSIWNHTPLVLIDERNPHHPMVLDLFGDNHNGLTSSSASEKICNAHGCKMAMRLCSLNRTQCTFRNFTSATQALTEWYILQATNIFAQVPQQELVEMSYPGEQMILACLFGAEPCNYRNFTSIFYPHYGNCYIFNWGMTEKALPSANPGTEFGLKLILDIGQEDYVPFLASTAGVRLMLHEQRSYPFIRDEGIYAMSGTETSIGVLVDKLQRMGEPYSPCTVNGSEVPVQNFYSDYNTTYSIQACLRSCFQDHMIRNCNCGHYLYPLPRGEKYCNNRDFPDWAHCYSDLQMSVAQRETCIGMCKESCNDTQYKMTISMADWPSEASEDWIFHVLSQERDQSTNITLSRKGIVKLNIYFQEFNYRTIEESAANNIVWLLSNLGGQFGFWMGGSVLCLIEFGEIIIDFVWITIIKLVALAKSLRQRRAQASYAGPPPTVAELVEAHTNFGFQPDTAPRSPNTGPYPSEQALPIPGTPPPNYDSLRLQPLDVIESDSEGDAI
T1 sequence (P51170 whole entry partner): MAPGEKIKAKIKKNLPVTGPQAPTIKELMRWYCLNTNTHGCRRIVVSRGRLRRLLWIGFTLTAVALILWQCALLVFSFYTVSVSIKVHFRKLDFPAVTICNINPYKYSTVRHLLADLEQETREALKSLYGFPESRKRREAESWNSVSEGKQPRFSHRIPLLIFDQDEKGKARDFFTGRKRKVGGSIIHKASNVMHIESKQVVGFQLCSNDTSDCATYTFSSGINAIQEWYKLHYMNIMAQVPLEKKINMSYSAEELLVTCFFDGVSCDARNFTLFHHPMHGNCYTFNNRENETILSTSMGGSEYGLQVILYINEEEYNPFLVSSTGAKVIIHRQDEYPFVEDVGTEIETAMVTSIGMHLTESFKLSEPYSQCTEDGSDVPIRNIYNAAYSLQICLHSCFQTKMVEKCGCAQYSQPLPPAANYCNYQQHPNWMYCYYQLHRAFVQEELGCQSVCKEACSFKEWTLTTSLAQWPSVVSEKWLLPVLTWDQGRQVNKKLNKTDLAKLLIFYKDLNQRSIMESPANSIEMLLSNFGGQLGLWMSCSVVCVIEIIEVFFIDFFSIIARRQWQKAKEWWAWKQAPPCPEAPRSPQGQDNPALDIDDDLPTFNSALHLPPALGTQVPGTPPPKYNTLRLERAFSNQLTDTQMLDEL
As to the kind of experiment: Airway surface liquid (ASL) height in human bronchial epithelial cultures by XZ-confocal microscopy (ENaC-led fluid absorption). The class given is cell-based. The settings on record: for potency in ASL height dose response relative to S18: dose responses in airway cultures (FIGS. 3A-3B, 4); for activity on inhibition of ENaC / preservation of ASL height, compared with S18: peptides added mucosally to HBECs at 30 μM, ASL height measured 3 h later (FIG. 2); for efficacy in ASL height dose response relative to S18: dose responses in airway cultures (FIGS. 3A-3B). The source says: Cells were harvested by enzymatic digestion from human bronchial tissue as previously described under a protocol approved by the UNC School of Medicine IRB (Tarran et al., J. Gen. Physiol. 127:591 (2006)). Human excess donor lungs and excised recipient lungs were obtained at the time of lung transplantation from portions of main stem or […] bronchi and cells were harvested by enzymatic digestion. All preparations were maintained at an air-liquid interface in a modified bronchial epithelial medium and used 2-5 weeks after seeding on 12 mm T-Clear inserts (Corning Costar) coated with human placental type VI collagen (Sigma). Phosphate buffered saline (PBS) was used for washing human bronchial epithelial culture mucosal surfaces.
To label airway surface liquid, Ringer containing Texas Red-dextran (2 mg/ml; Invitrogen) was added to human bronchial epithelial culture mucosal surfaces. Perfluorocarbon was added mucosally to prevent evaporation of the airway surface liquid and the culture placed in a chamber containing 100 μl Ringer on the stage of a Leica SP8 confocal microscope with a 63× glycerol immersion objective. 10 points per culture were scanned and an average airway surface liquid height determined. For confocal microscopy human bronchial epithelial cultures were bathed serosally in a modified Ringer solution containing (mM): 116 NaCl, 10 NaHCO3, 5.1 KCl, 1.2 CaCl2, 1.2 MgCl2, 20 TES, 10 glucose, pH 7.4). At all other times, human bronchial epithelial cultures were maintained in a modified BEGM growth medium which contained 24 mM NaHCO3 gassed with 5% CO2. Perfluorocarbon (FC-77) was obtained from 3M and had no effect on ASL height as previously reported.
D-alanines are noted as lowercase a. All n=6-9. Data are shown as mean±SEM.

In the next data set the test system is βENaC-Tg mice. The class given is in vivo. An excerpt:
Like CF patients, βENaC-Tg mice are disease free at birth, but soon develop obstructive lung disease (Zhou, Z., et al. Am J Respir Crit Care Med 178, 1245-1256 (2008)). C57BL:FVB and C57BL:C3H mixed strains have 90% and 50% mortality, respectively, and the reproducibility of the disease on these backgrounds is sufficiently high that reliable data are produced with n of about 8-10 animals/group. Furthermore, the βENaC-Tg mouse responds to therapeutic interventions in a fashion similar to CF/COPD in humans, and the development of lung disease can be prevented following inhibition of lung disease at birth (Livraghi, A., et al. J Immunol 182, 4357-4367 (2009)). S18-derived peptides or vehicle were dosed one to three times a day by intranasal instillation (1 μl/g body weight) for 14 days in parallel cohorts of mice. Mice were weighed daily and, if a diuretic effect was found, the volume excreted was replaced by sub-cutaneous injections of sterile saline. At the end of the treatment, mice were sacrificed for phenotypic analysis.

Data set [2] has as its target T1, ENaC. The note with it: previously demonstrated (Hobbs et al., 2013); cited from earlier work.
A further data set can be described thus: Heat stability. The class given is physicochemical.
The mark [3] stands for this setting: βENaC-Tg C57BL:C3H mice, fourteen-day treatment (FIGS. 7C, 7D, 7F).

On to `CCCC[C@H](NC(=O)[C@@H]1CCCN1C(=O)[C@H](CC(C)C)NC(=O)[C@@H](C)NC(=O)[C@@H](C)N)C(=O)N1CCC[C@H]1C(=O)N[C@@H](CC(C)C)C(=O)N[C@@H](CC(=O)O)C(=O)N[C@@H](CCC(N)=O)C(=O)N[C@H](C(=O)N[C@H](C)C(=O)N[C@H](C)C(N)=O)[C@@H](C)O` [SEQ ID NO:5, aaLPNlePLDQTaa] (H-[dA][dA]LP[Nle]PLDQT[dA][dA]-NH2; N-terminus assumed), for which 30 nM corresponded to half-maximal inhibition at ENaC [1] (additional dose response, fresh batch of airway cells (FIG. 4)) (IC50). Further, the “potency in ASL height dose response relative to S18” value on ENaC [1] was “log-fold increase in potency; also recorded: significant increase in potency; also recorded: increased potency”. Turning to `CC[C@H](C)[C@H](NC(=O)[C@@H]1CCCN1C(=O)[C@H](CC(C)C)NC(=O)[C@@H](C)NC(=O)[C@@H](C)N)C(=O)N1CCC[C@H]1C(=O)N[C@@H](CC(C)C)C(=O)N[C@@H](CC(=O)O)C(=O)N[C@@H](CCC(N)=O)C(=O)N[C@H](C(=O)N[C@H](C)C(=O)N[C@H](C)C(N)=O)[C@@H](C)O` [SEQ ID NO:128, aaLPIPLDQTaa] (H-[dA][dA]LPIPLDQT[dA][dA]-NH2), the percent survival result in the data set with βENaC-Tg mice (setting [3]) is recorded as “increased percent survival”; with βENaC-Tg mice (βENaC-Tg C57BL:C3H mice, once daily dosing (FIG. 7E left panel)) it was “increased percent survival”; in the data set on βENaC-Tg mice (βENaC-Tg C57BL:FVB mice, fourteen-day treatment, inhaled (FIG. 7B)) it was “more effective than inhaled SEQ ID NO:142”. Consider “DQTLPLNVNP (also: C-terminal amide, amidation at residue 8) [SEQ ID NO:114]”, for which the “activity on inhibition of ENaC / preservation of ASL height, compared with S18” value with ENaC [1] was “inactive”. Consider H-GGLPVPLDQTLPLNVNPA-NH2 [S18], for which, at ENaC [2], the “EC50 of ENaC inhibition” value is “sub micromolar range” and the “duration of ENaC inhibition following a single dose” value is listed as “up to 24 h”. Moreover, the heat stability entry in “Heat stability” was “heat-stable”.

For the molecule “H-LPVPLDQT-NH2 [SEQ ID NO:113, LPVPLDQT]”, the “activity on inhibition of ENaC / preservation of ASL height, compared with S18” value at ENaC [1] is “retained similar activity to 518; also recorded: required for inhibition of ENaC and preservation of ASL height”. For the molecule “SEQ ID NO:127: NH3-L-P-I-P-L-D-Q-T-NH2 (H-LPIPLDQT-NH2)”, the percent survival result with βENaC-Tg mice (setting [3]) is given as “increased percent survival”. Regarding “aaLPVPLDQSaa ([dA][dA]LPVPLDQS[dA][dA]-NH2; N-terminus assumed; SMILES CC(C)C[C@H](NC(=O)[C@@H]1CCCN1C(=O)[C@@H](NC(=O)[C@@H]1CCCN1C(=O)[C@H](CC(C)C)NC(=O)[C@@H](C)NC(=O)[C@@H](C)N)C(C)C)C(=O)N[C@@H](CC(=O)O)C(=O)N[C@@H](CCC(N)=O)C(=O)N[C@@H](CO)C(=O)N[C@H](C)C(=O)N[C@H](C)C(N)=O) [SEQ ID NO:9, a = D-alanine]”, the “potency in ASL height dose response relative to S18” value with ENaC [1] was “diminished potency”.

Consider “aaLPVPLDQTLPLNVNPaa ([dA][dA]LPVPLDQTLPLNVNP[dA][dA]-NH2; N-terminus assumed; SMILES CC(C)C[C@H](NC(=O)[C@@H]1CCCN1C(=O)[C@H](CC(C)C)NC(=O)[C@@H](NC(=O)[C@H](CCC(N)=O)NC(=O)[C@H](CC(=O)O)NC(=O)[C@H](CC(C)C)NC(=O)[C@@H]1CCCN1C(=O)[C@@H](NC(=O)[C@@H]1CCCN1C(=O)[C@H](CC(C)C)NC(=O)[C@@H](C)NC(=O)[C@@H](C)N)C(C)C)[C@@H](C)O)C(=O)N[C@@H](CC(N)=O)C(=O)N[C@H](C(=O)N[C@@H](CC(N)=O)C(=O)N1CCC[C@H]1C(=O)N[C@H](C)C(=O)N[C@H](C)C(N)=O)C(C)C) [SEQ ID NO:2, a = D-alanine]”, for which, in the data set with ENaC [1], the “efficacy in ASL height dose response relative to S18” value was “equal potency and efficacy”; the “potency in ASL height dose response relative to S18” value is on record as “equal potency”. In the case of “aaLPVPLDQTaa ([dA][dA]LPVPLDQT[dA][dA]-NH2; N-terminus assumed; SMILES CC(C)C[C@H](NC(=O)[C@@H]1CCCN1C(=O)[C@@H](NC(=O)[C@@H]1CCCN1C(=O)[C@H](CC(C)C)NC(=O)[C@@H](C)NC(=O)[C@@H](C)N)C(C)C)C(=O)N[C@@H](CC(=O)O)C(=O)N[C@@H](CCC(N)=O)C(=O)N[C@H](C(=O)N[C@H](C)C(=O)N[C@H](C)C(N)=O)[C@@H](C)O) [SEQ ID NO:3, a = D-alanine]”, in the data set with ENaC [1], the “efficacy in ASL height dose response relative to S18” value is “did not affect its potency or efficacy; also recorded: equal potency and efficacy”; the “potency in ASL height dose response relative to S18” value is reported as “identical dose responses; also recorded: equal potency”.

Consider aaLPVPNleDQTaa [SEQ ID NO:6], for which, at ENaC [1], the “efficacy in ASL height dose response relative to S18” value is recorded as “diminished”.
